Assay results: patent US10258691B2 (SignPath Pharma Inc., priority 2014, dated 2019)
Several values for one entry are separate records, joined by “and”; a condition that tells them apart may be missing. Equal entries are not always repeated. Entries after “also recorded” stand apart in the source; their conditions may differ. Structures can show the parent of a compound that is named as a salt.

Columns and labels:
[1] = biological target: T1, hERG (Homo sapiens, UniProt Q12809); assay: Whole-cell patch-clamp, protective effect of 10:0-18:0 Lyso PG and 14:0 EGPG against hERG inhibition by Nilotinib; type: cell-based; parameters: expressed in transfected cells; host or cells: HEK 293, stably transfected with the hERG gene (HEK-hERG); conditions: for protective effect against hERG inhibition by Nilotinib (in words): PLs/Nilo ratio 9:1; for inhibition of the hERG tail current (in words): lipid alone or Nilotinib 0.5 μg/mL formulated with lipid […] (9:1)
Method: The purpose of this study is to evaluate in vitro the protective effect of 10:0 Lyso PG, 12:0 Lyso PG, 14:0 Lyso PG, 16:0 Lyso PG, 18:0 Lyso PG and 14:0 EGPG on the rapidly activating delayed-rectifier potassium selective current (IK) generated under normoxic conditions in stably transfected Human Embryonic Kidney cells (HEK 293 cells).
The test samples were prepared as follows. […] The solution was vortexed for 10 minutes before being used in the patch-clamp assay.
Test performed: Whole-cell patch-clamp current acquisition and analysis. Temperature: 35±2° C. Original data acquisition design: Acquisition Rate(s): 1.0 kHz.
Patch-clamp current recording. […] Isolated cells were plated into 2-mL experimental chambers, mounted on the platform of an inverted microscope. The cells were superfused with external solution (in mM: NaCl 140.0, KCl 5.0, CaCl2 1.8, MgCl2 1.0, HEPES 10.0, dextrose 10.0, pH 7.4±0.05). A 2-10 MΩ resistance pipette was filled with the pipette solution (in mM: KCl 140.0, MgCl2 1.0, Mg-ATP 4.0, EGTA 5.0, HEPES 10.0, sucrose 10.0, pH 7.4±0.05), and brought to contact the external membrane of a single cell.
Application of test samples: 5 minutes of exposure to each concentration in presence of closed circuit perfusion (2 mL/min). 5 minutes for washout periods in presence of a flow-through perfusion (2 mL/min) in addition to a closed circuit perfusion (2 mL/min). […] Cells were under continuous stimulation of the pulses protocol throughout the studies and cell currents were recorded after 5 minutes of exposure to each condition.
Statistical analysis: Statistical comparisons were made using paired Student's t-tests, comparing each treatment period with its corresponding value at the baseline condition. The currents recorded after the exposure of each test sample were compared to the currents recorded in baseline conditions. Differences were considered significant when p≤0.05.
Effect of the Test Samples on whole-cell IKr hERG currents. Whole-cell currents elicited during a voltage pulse were recorded in baseline conditions and following the application of the selected concentration of test sample. The cells were depolarized for one second from the holding potential (−80 mV) to a maximum value of +40 mV, starting at −40 mV and progressing in 10 mV increments. The membrane potential was then repolarized to −55 mV for one second, and finally returned to −80 mV.
Whole-cell tail current amplitude was measured at a holding potential of −55 mV, following activation of the current from −40 to +40 mV. Current amplitude was measured at the maximum (peak) of this tail current. Current density was obtained by dividing current amplitude by cell capacitance measured prior to capacitive transient minimization.
Current run-down and solvent effect correction. All data points presented in this example were corrected for solvent effect and time-dependent current run-down. Current run-down and solvent effects were measured simultaneously by applying the study design in test sample-free conditions over the same time frame as was done with the test sample. The loss in current amplitude measured during these so-called vehicle studies (representing both solvent effects and time-dependent run-down) was subtracted from the loss of amplitude measured in the presence of the test sample to isolate the effect of the test sample, apart from the effect of the solvent and the inevitable run-down in current amplitude over time.

[2] = biological target: T1, hERG; assay: Whole-cell patch-clamp, protective effect of DMPC, DMPG, DMPC/DMPG, LysoPG and LysoPC against hERG inhibition by Nilotinib; conditions: for inhibition of the hERG tail current density (in words) / Corrected Normalized Current Density / Normalized Current Density: HEK 293; for inhibition of the hERG tail current density (in words): lipid alone or Nilotinib 0.1 μM formulated in aqueous solution with lipid; for Corrected Normalized Current Density: corrected for solvent effect and current run-down, baseline 1.000; for Corrected Normalized Current Density / Normalized Current Density: Nilotinib 0.1 μM (alone in DMSO, with lipid in aqueous solution), 14:0 LysoPG […]; for Normalized Current Density: hERG tail current density relative to baseline 1.000, 5 min exposure; for protection against hERG inhibition caused by Nilotinib (in words): in vitro, co-formulated with Nilotinib
[3] = system: Male Hartley guinea pigs; assay: Moxifloxacin-induced QTc prolongation in guinea pigs, oral phospholipids; type: in vivo, guinea pig; conditions: for mitigation of MF-induced QT prolongation (in words): oral gavage 2 hours before 20 mg/kg i.v. MF, PL to drug ratio 1:1 (FIG. 11A)
[4] = system: Sprague Dawley male rats; assay: Moxifloxacin-induced QTc prolongation in rats, oral complex pre-treatment; type: in vivo; conditions: rat; Moxifloxacin 20 mg/kg i.v. over 20 minutes
Source text: Methods. The present inventors formulated the product in a complex mixture as an oral application in order to facilitate drug delivery in cancer patients being treated with oral LQTS inducing drugs. Preclinical evaluation of the oral application was done by instrumented Sprague Dawley male (250-300 g) rats. Cutaneous ECG leads were used to maximize T wave detection. The animals in groups of 3 rats were briefly anesthetized with a light dose of isoflurane, and a pre-treatment ECG was obtained to establish well-defined T waves, and to rule-out existing arrhythmic predispositions. Pre-treatment ECG profiles were normal.
A single dose of the oral complex in the ratio of 9:1 Moxifloxicin was vortexed continuously for 5 minutes to obtain an emulsion and immediately administered by gavage. Moxifloxacin, a broad spectrum antibiotic with documented LQTS activity, was formulated in DMSO and 2 hours afterwards infused intravenously (femoral canula) over 20 minutes at a starting dose of 2.8 mg/kg. ECGs were recorded from 5 minutes prior to and during the 20 minute infusion. Then the animals were dosed at 6.1 mg/kg over 20 minutes; then 20 mg/kg over 20 minutes. In a positive control group moxifloxacin was infused alone. In a second group of rats the complex was given orally 2 hours prior to the first dose of moxifloxacin. […]

[5] = system: HEK293 cell; conditions: 20 μM, 24 h incubation; cited from earlier work
[6] = system: rabbits; conditions: intravenous injection of 20 mg; cited from earlier work

T1 sequence (Q12809 whole entry): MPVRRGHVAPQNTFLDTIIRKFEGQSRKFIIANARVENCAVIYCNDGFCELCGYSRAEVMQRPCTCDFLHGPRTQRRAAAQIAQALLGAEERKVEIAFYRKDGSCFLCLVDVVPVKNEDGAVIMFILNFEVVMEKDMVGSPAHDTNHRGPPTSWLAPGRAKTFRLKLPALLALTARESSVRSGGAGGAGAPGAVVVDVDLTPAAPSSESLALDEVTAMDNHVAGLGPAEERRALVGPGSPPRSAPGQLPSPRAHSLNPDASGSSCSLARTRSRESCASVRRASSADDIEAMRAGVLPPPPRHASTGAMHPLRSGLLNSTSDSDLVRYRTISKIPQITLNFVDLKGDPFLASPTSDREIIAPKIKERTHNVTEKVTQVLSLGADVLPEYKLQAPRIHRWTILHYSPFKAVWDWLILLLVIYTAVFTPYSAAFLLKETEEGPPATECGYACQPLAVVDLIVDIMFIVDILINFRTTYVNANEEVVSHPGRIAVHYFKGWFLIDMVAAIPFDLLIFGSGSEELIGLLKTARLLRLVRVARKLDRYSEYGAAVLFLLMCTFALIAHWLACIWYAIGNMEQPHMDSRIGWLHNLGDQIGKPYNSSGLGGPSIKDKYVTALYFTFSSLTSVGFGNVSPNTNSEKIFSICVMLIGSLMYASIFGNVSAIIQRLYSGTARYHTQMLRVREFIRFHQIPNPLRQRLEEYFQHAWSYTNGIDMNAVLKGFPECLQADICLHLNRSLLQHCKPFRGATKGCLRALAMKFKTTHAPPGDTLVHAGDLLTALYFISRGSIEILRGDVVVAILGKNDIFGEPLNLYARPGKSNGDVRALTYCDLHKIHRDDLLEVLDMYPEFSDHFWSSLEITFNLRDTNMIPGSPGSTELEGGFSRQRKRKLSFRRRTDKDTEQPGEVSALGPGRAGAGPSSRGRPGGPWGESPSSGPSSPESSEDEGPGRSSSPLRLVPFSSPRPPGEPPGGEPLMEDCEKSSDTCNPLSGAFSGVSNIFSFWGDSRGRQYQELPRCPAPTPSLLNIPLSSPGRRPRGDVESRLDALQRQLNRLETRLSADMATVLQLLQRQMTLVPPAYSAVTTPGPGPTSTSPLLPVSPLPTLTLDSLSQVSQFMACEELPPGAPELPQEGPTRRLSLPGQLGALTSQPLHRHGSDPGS

Compound: CCCCCCCCCC(=O)OC[C@@H](O)COP(=O)([O-])OCC(O)CO.[Na+] (mixture of isomers) [10:0 LysoPG, 1-decanoyl-2-hydroxy-sn-glycero-3-[phospho-rac-(1-glycerol)] sodium salt]
- protective effect against hERG inhibition by Nilotinib (in words) [1]: prevented the inhibition
- inhibition of the hERG tail current (in words) [1]: did not cause any inhibition

Compound: CCCCCCCCCCCC(=O)OC[C@@H](O)COP(=O)([O-])OCC(O)CO.[Na+] (mixture of isomers) [12:0 LysoPG, 1-dodecanoyl-2-hydroxy-sn-glycero-3-[phospho-rac-(1-glycerol)] sodium salt]
- protective effect against hERG inhibition by Nilotinib (in words) [1]: prevented the inhibition
- inhibition of the hERG tail current (in words) [1]: did not cause any inhibition

Compound: CCCCCCCCCCCCCC(=O)OC[C@@H](O)COP(=O)(O)OCC(O)CO (mixture of isomers) [14:0 LysoPG, 1-myristoyl-2-hydroxy-sn-glycero-3-[phospho-rac-(1-glycerol)] sodium salt]
- protective effect against hERG inhibition by Nilotinib (in words) ([1]; listed as 14:0 Lyso PG, sodium salt): higher protective
- protective effect against hERG inhibition by Nilotinib (in words) ([1]; sodium salt): prevented the inhibition; also recorded: most potent
- inhibition of the hERG tail current (in words) [1]: did not cause any inhibition
- inhibition of the hERG tail current density (in words) [2]: did not cause any inhibition
- Corrected Normalized Current Density [2]: 1.124
- Normalized Current Density [2]: 0.930
- protection against hERG inhibition caused by Nilotinib (in words) [2]: protects against hERG inhibition

Compound: CCCCCCCCCCCCCCCC(=O)OC[C@@H](O)COP(=O)([O-])OCC(O)CO.[Na+] (mixture of isomers) [16:0 LysoPG, 1-palmitoyl-2-hydroxy-sn-glycero-3-[phospho-rac-(1-glycerol)] sodium salt]
- protective effect against hERG inhibition by Nilotinib (in words) ([1]; listed as 16:0 Lyso PG, sodium salt): higher protective
- protective effect against hERG inhibition by Nilotinib (in words) ([1]; sodium salt): prevented the inhibition; also recorded: most potent
- inhibition of the hERG tail current (in words) [1]: did not cause any inhibition

Compound: CCCCCCCCCCCCCCCCCC(=O)OC[C@@H](O)COP(=O)([O-])OCC(O)CO.[Na+] (mixture of isomers) [18:0 LysoPG, 1-stearoyl-2-hydroxy-sn-glycero-3-[phospho-rac-(1-glycerol)] sodium salt]
- protective effect against hERG inhibition by Nilotinib (in words) [1]: prevented the inhibition
- inhibition of the hERG tail current (in words) [1]: did not cause any inhibition

Compound: CCCCCCCCCCCCCC(=O)OCCOP(=O)(O)OCC(O)CO.N (centres unmarked) [14:0 EGPG, 2,3-dihydroxypropyl(2-[tetradecanoyloxy]ethyl)phosphate (ammonium salt)]
- mitigation of MF-induced QT prolongation (in words) [3]: prevented the MF-induced QTs prolongation
- protective effect against hERG inhibition by Nilotinib (in words) ([1]; (ammonium salt)): prevented the inhibition; also recorded: higher protective
- inhibition of the hERG tail current (in words) [1]: did not cause any inhibition

Compound: CCCCCCCCCCCCCC(=O)OC[C@H](COP(=O)([O-])OCC(O)CO)OC(=O)CCCCCCCCCCCCC.[Na+] (some centres unmarked) [DMPG, 1,2-dimyristoyl-sn-glycero-3-[phosphoric-(1-glycerol)] (sodium salt)]
- mitigation of MF-induced QT prolongation (in words) [3]: prevented the MF-induced QTs prolongation
- inhibition of the hERG tail current density (in words) [2]: did not cause any inhibition
- Corrected Normalized Current Density [2]: 0.994
- Normalized Current Density [2]: 0.800
- protection against hERG inhibition caused by Nilotinib (in words) ([2]; (sodium salt)): protects against hERG inhibition; also recorded: abrogated the effects of nilotinib

Compound: COc1c(N2C[C@@H]3CCCN[C@@H]3C2)c(F)cc2c(=O)c(C(=O)O)cn(C3CC3)c12 [Moxifloxacin]
- QTc prolongation [4]: 48 ms and 55 ms
- QTc prolongation ([3]; 20 mg/kg i.v. MF): 35 ms

Compound: Cc1cn(-c2cc(NC(=O)c3ccc(C)c(Nc4nccc(-c5cccnc5)n4)c3)cc(C(F)(F)F)c2)cn1 [Nilotinib, reference compound]
- inhibition at 5 min, 1 μM ([1]; human, HEK 293 cells stably transfected with hERG, pH 7.4, read-out: inhibition of the hERG tail current): 70%

Compound: COc1cc(/C=C/C(=O)/C=C(O)/C=C/c2ccc(O)c(OC)c2)ccc1O [curcumin, Curcumin]
- HEK293 cell viability [5]: reduced the HEK293 cell viability
- cardiac repolarization manifested by QTc values [6]: did not affect the cardiac repolarization
